Earlier results on four molecules are cited in patent EP2637636B1, “LEAVE-ON NONSOLID SKIN CONDITIONING COMPOSITIONS CONTAINING 12-HYDROXYSTEARIC ACID” (Unilever PLC, priority 2010, dated 2012).

For the data set the following is noted: surfactants used in the Examples.

Take Sorbitan Monostearate [Span 60]: the HLB is recorded as 4.7.

As to Glyceryl hydroxystearate, the HLB result was “about 5”.

As for Hexadecyl n-methyl glucamide, the HLB was over 7. `CCCCCCCCCCCCNC(=O)[C@H](O)[C@@H](O)[C@H](O[C@@H]1O[C@H](CO)[C@H](O)[C@H](O)[C@H]1O)[C@H](O)CO` [C12 lactobionamide]: the HLB is over 7.
